Results published in article PMC11316643 (European journal of medicinal chemistry, 2024).
Where two headings read alike, the source gives them in different places.

Tests used:
[1] = molecular target: human kappa opioid receptor (KOR) (Homo sapiens, UniProt P41145); experiment: 35S-GTPγS binding assay of KOR G protein activation in CHO-hKOR membranes; assay type: biochemical
human KOR = human KOR (Homo sapiens, UniProt P41145); experiment: Bias analysis by operational model
Sequence of human KOR (P41145 whole entry): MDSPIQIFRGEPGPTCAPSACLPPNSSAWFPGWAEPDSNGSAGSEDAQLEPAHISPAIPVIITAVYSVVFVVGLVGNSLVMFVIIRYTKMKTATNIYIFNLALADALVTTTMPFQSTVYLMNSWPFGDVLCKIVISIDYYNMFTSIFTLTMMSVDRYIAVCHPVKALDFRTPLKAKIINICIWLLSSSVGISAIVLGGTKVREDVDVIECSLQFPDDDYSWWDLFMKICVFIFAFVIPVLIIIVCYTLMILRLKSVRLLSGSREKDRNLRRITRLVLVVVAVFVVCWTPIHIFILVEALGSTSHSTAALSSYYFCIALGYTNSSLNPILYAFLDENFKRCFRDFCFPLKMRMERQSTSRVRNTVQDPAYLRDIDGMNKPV
Sequence of human KOR (P32121 whole entry partner): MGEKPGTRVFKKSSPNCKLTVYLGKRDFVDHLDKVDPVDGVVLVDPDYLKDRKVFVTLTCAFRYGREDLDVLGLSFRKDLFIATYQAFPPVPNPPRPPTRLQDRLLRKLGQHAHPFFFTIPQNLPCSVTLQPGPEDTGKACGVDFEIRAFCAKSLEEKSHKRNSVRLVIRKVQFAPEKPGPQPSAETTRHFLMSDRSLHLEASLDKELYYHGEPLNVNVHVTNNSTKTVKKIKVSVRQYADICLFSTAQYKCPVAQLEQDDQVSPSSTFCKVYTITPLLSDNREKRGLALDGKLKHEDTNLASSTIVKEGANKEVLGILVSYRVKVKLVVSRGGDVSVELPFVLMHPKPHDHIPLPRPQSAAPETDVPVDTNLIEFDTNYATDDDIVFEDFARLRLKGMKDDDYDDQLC

Sequence of human kappa opioid receptor (KOR) (P41145 whole entry): as the sequence (P41145 whole entry) above

Cc1ccc(/C=C/c2nnc(-c3ccccn3)n2Cc2ccco2)cc1C(F)(F)F [5d, (E)-2-(4-(Furan-2-ylmethyl)-5-(4-methyl-3-(trifluoromethyl)styryl)-4H-1,2,4-triazol-3-yl)pyridine]
KOR agonist activity (GTPγS) in words [1]: dramatic loss in potency

c1ccc(-c2nnc(C3CCc4ccccc4C3)n2Cc2cccs2)nc1 (centres unmarked) [5a, 2-(5-(1,2,3,4-Tetrahydronaphthalen-2-yl)-4-(thiophen-2-ylmethyl)-4H-1,2,4-triazol-3-yl)pyridine]
KOR agonist activity (GTPγS) in words ([1]; SAR discussion): detrimental to activity

Cc1ccc(CCc2nnc(-c3cccnc3)n2Cc2cccs2)cc1C(F)(F)F [3b, 3-(5-(4-Methyl-3-(trifluoromethyl)phenethyl)-4-(thiophen-2-ylmethyl)-4H-1,2,4-triazol-3-yl)pyridine]
KOR agonist activity (GTPγS) in words [1]: significant loss of activity

C(=C/c1nnc(-c2ccccn2)n1Cc1ccco1)/c1ccccc1 [5c, (Z)-2-(4-(Furan-2-ylmethyl)-5-styryl-4H-1,2,4-triazol-3-yl)pyridine]
KOR agonist activity (GTPγS) in words [1]: dramatic loss in potency

Cc1ccc(CCc2nnc(-c3ccncc3)n2Cc2cccs2)cc1C(F)(F)F [3c, 4-(5-(4-Methyl-3-(trifluoromethyl)phenethyl)-4-(thiophen-2-ylmethyl)-4H-1,2,4-triazol-3-yl)pyridine]
KOR agonist activity (GTPγS) in words ([1]; SAR discussion): significant loss of activity

Brc1ccccc1CCc1nnc(-c2ccccn2)n1Cc1cccs1 [4g, 2-(5-(2-Bromophenethyl)-4-(thiophen-2-ylmethyl)-4H-1,2,4-triazol-3-yl)pyridine]
fold decrease in potency of ortho bromo vs para-bromo (4e) [1]: ca. 10 fold

C(#Cc1nnc(-c2ccccn2)n1Cc1ccco1)c1ccccc1 [5b, 2-(4-(Furan-2-ylmethyl)-5-(phenylethynyl)-4H-1,2,4-triazol-3-yl)pyridine]
KOR agonist activity (GTPγS) in words ([1]; SAR discussion): dramatic loss in potency

FC(Cc1ccccc1)c1nnc(-c2ccccn2)n1Cc1ccco1 (centres unmarked) [5g, 2-(5-(1-Fluoro-2-phenylethyl)-4-(furan-2-ylmethyl)-4H-1,2,4-triazol-3-yl)pyridine]
fold loss of potency compared to compound 4a [1]: 3 fold

Cc1ccc(CCc2nnc(-c3ccccn3)n2Cc2ccncc2)cc1C(F)(F)F [2j, 2-(5-(4-Methyl-3-(trifluoromethyl)phenethyl)-4-(pyridin-4-ylmethyl)-4H-1,2,4-triazol-3-yl)pyridine]
KOR agonist activity (GTPγS) in words ([1]; SAR discussion): inactive

c1ccc(-c2nnc(-c3ccccn3)n2Cc2cccs2)cc1 [5j, 2-(5-Phenyl-4-(thiophen-2-ylmethyl)-4H-1,2,4-triazol-3-yl)pyridine]
KOR agonist activity (GTPγS) in words [1]: loss of activity

Cc1ccc(CCc2nnc(-c3ccccn3)n2-c2ccccc2)cc1C(F)(F)F [2g, 2-(5-(4-Methyl-3-(trifluoromethyl)phenethyl)-4-phenyl-4H-1,2,4-triazol-3-yl)pyridine]
KOR agonist activity (GTPγS) in words [1]: inactive

Cc1ccc(CCc2nnc(-c3ccccn3)n2CC2CC2)cc1C(F)(F)F [2k, 2-(4-(Cyclopropylmethyl)-5-(4-methyl-3-(trifluoromethyl)phenethyl)-4H-1,2,4-triazol-3-yl)pyridine]
fold decrease in potency on cyclopropane substitution [1]: 10 fold

Cc1ccc(CCc2nnc(-c3ccccc3)n2Cc2cccs2)cc1C(F)(F)F [3a, 3-(4-Methyl-3-(trifluoromethyl)phenethyl)-5-phenyl-4-(thiophen-2-ylmethyl)-4H-1,2,4-triazole]
KOR agonist activity (GTPγS) in words [1]: significant loss of activity

Cc1ccc(CCc2nnc(-c3ccccn3)n2Cc2cccs2)cc1C(F)(F)F [2d, 2-(5-(4-Methyl-3-(trifluoromethyl)phenethyl)-4-(thiophen-2-ylmethyl)-4H-1,2,4-triazol-3-yl)pyridine]
bias (bias factor, G protein over βarrestin2) (human KOR): 38
